{
  "source": "patent US20180119105A1",
  "about": "“METHOD FOR PRODUCTION OF INSULIN-PRODUCING CELLS” (University of Copenhagen, priority 2015, published 2018)",
  "key": {"[1]": {"system": "hES cell derived pancreatic progenitors (PDX1-eGFP)", "experiment": "Immunostaining (C-peptide, Glucagon, GFP) of hES cell derived pancreatic progenitors treated with verteporfin for 5 days", "assay_type": "cell-based, human", "from_the_text": "FIG. 7: Treating hES cell derived pancreatic progenitors with verteporfin for 5 days leads to enhanced insulin expression. Stable PDX1-eGFP human ES cells were differentiated to pancreatic progenitor stage and treated with either DMSO (controls) or Verteporfin for 5 days and immuno stained with C-peptide (white), Glucagon (dark grey) and GFP PDX1 (light grey). Verteporfin-treated progenitors show enhanced endocrine/beta cell differentiation and express higher levels of C-peptide, whereas DMSO treated cells express low levels of C-peptide and Glucagon.\n(§1) The verteporfin treatment directed the pancreatic progenitors to endocrine lineage differentiation at the expense of acinar lineage."}, "[2]": {"system": "hES cell derived pancreatic progenitors (PDX1 eGFP)", "experiment": "qRT PCR analysis of hES cell derived pancreatic progenitors treated with verteporfin for 4 days", "assay_type": "cell-based, human", "conditions": "1 μg/ml verteporfin, compared to DMSO treated control cultures", "experimental": "FIG. 5: Inhibition of YAP1 in hES cell derived pancreatic progenitors leads to β-cell differentiation. (A) Outline of the 15 day protocol (modified from Rezania et al, 2010) used to generate pancreatic progenitors from human ES cells. At the end of the protocol the majority of cells express the progenitor markers PDX1 and NKX6.1. The YAP1-TEAD inhibitor Verteporfin (VP) was added to the medium during PE day 4 and the cells were treated for either 4 or 5 days. […] Y axis: relative mRNA expression as fold change.\n(§2) We cultured the hES PDX1 GFP cells using a modified protocol from Rezania et al 2010 (see below for the exact protocol, outlined in FIG. 5A) that efficiently generates pancreatic progenitors mostly expressing PDX1, NKX6.1. Briefly, Hues4 hES PDX1 GFP cells were cultured on feeder-free DEF system (““DEF-CS™”, Cellectis stem cells, Cellartis AB”) until full confluency. When full confluency was reached the cells were subjected to differentiation as follows for 5 different stages to obtain insulin producing mature Beta cells.\n(§3) Cells were cultured in RPMI medium with 3 μM CHIR99021 (a Wnt activator) for 1 day. During the second day the cells were treated with 100 ng/ml Activin A. For days 3 and 4 the cells were treated with 100 ng/ml Activin A along with 2% (v/v) B27.\n(§4) The cultures were exposed to F12 media containing 2% B27, 2 gm/L Sodium bicarbonate along with 0.25 mM Vitamin C and 50 ng/ml FGF7 for two days.\n(§5) The cultures were continued for four days in DMEM high glucose media along with 2% B27, 2 g/L Sodium bicarbonate, 0.25 mM Vitamin C, 2 ng/ml FGF7, 0.25 μM Sant1, 100 ng/ml Noggin and 2 μM Retinoic acid.\n(§6) Stage 4 cells were cultured for 5 days to obtain PDX1 and NKX6.1 expressing pancreatic progenitor cells by culturing in 2% B27, 2 gm/L Sodium bicarbonate, 0.25 mM Vitamin C, 100 ng/ml Noggin and 500 nM TPB (PKC activator).\n(§7) To obtain insulin expressing, MAFA positive mature Beta cells, the cultures were treated with the YAP-TEAD inhibitor Verteporfin at a concentration of 1 μg/ml in Stage 4 medium and cultured for another 4-9 days.\n(§8) After culturing the cells for the first 4 stages above (around 15 days), the differentiated hES cells were enriched for PDX1 expression as they expressed GFP. These enriched pancreatic progenitor cultures were treated with the YAP1 -TEAD chemical inhibitor Verteporfin for an additional 4-5 days and checked for gene expression (stage 5). As expected from mouse studies, inhibition of YAP1 activity in the PDX1 enriched cells, using verteporfin after 4 days led to efficient and enhanced endocrine differentiation especially towards insulin producing beta cells at the expense of acinar lineage."}, "[3]": {"system": "hES cell derived pancreatic progenitors (PDX1 eGFP)", "experiment": "qRT PCR analysis of hES cell derived pancreatic progenitors treated with verteporfin for 5 days", "assay_type": "cell-based, human", "conditions": "verteporfin 5 days", "experimental": "FIG. 6: Treatment with verteporfin for 5 days leads to enhanced expression of islet specific genes. […] Expression of NKX6.1 is not altered, as it is expressed in both pancreatic progenitors and mature beta-cells. […]\nas §2, §3, §4, §5, §6, §7, §8, §1"}, "[4]": {"system": "Wild type C57bl6 mouse pancreatic explants at E11.5", "experiment": "RT-qPCR of endocrine gene expression in mouse pancreatic explants cultured ex-vivo with Verteporfin", "assay_type": "cell-based", "conditions": "1 μg/ml Verteporfin for 72 hours; RT-qPCR after 6 days of culture; fold change relative to Ecad expression", "experimental": "FIG. 4: Inhibition of Yap1 using Verteporfin in wild type mouse pancreatic explants leads to enhanced endocrine differentiation. Wild type C57bl6 mouse pancreatic explants at E11.5 embryonic stages were cultured ex-vivo for initial 24 hrs in normal culture media supplemented with 1 ug/ml Verteporfin for 72 hours and again in normal culture media without Verteporfin for another 48 hours. The explants were analyzed by RT-qPCR for endocrine gene expression after 6 days of culture. […] This ultimately leads to enhanced endocrine differentiation as analysed for Insulin (E) and Glucagon (F) expression. Y axis: relative expression (fold change relative to Ecad expression).\nWild type C57bl6 mouse pancreatic explants at E11.5 embryonic stages were cultured ex-vivo for initial 24 hours in normal culture media supplemented with 1 μg/ml Verteporfin for 72 hours and again in normal culture media without Verteporfin for another 48 hours. The explants were analyzed by RT-qPCR for endocrine gene expression after 6 days of culture. […] Expression of these genes is characteristic of islet cell fate."}, "[5]": {"system": "Stable Pdx1 Gfp human ES cells differentiated to pancreatic progenitor stage", "experiment": "Immunostaining (c-peptide, Neurogenin3) with confocal microscopy of hES cell derived pancreatic progenitors treated with VP for 5 days", "assay_type": "cell-based", "conditions": "VP 1 μg/ml, compared to DMSO treated cells", "experimental": "FIG. 8: hES cell derived pancreatic progenitors treated with VP for 5 days show enhanced endocrine differentiation & Insulin expression. Stable Pdx1 Gfp human ES cells were differentiated to pancreatic progenitor stage and then treated with either DMSO (control) or Verteporfin (VP, 1 μg/ml) for 5 additional days. Cultures were immuno-stained with c-peptide (light grey) and Neurogenin3 (dark grey) antibodies and imaged using confocal microscope.\nStable Pdx1 Gfp human ES cells were differentiated to pancreatic progenitor stage and then treated with either DMSO (control) or Verteporfin (VP, 1 μg/ml) for 5 additional days. Cultures were immuno-stained with c-peptide and Neurogenin3 antibodies and imaged using confocal microscopy (FIG. 8)."}, "[6]": {"conditions": "verteporfin 5 days vs DMSO, immunostaining"}, "[7]": {"conditions": "fold-change versus DMSO control"}},
  "data": [
    {"substance": "Verteporfin", "values": [
      {"measurement": "MAFA status of Insulin expressing cells", "setting": "[1]; verteporfin 5 days", "result": "positive for MAFA"},
      {"measurement": "Glucagon protein expression", "setting": "[1]; [6]", "result": "enhanced"},
      {"measurement": "insulin (c-peptide) protein expression", "setting": "[1]; [6]", "result": "enhanced"},
      {"measurement": "CPA1 mRNA expression (exocrine gene)", "setting": "[2]", "result": "down-regulated"},
      {"measurement": "Glucagon mRNA expression", "setting": "[2]", "result": "up-regulation"},
      {"measurement": "ISL-1 mRNA expression", "setting": "[2]", "result": "up-regulation"},
      {"measurement": "Insulin mRNA expression", "setting": "[2]", "result": "up-regulation"},
      {"measurement": "MAFA mRNA expression", "setting": "[2]", "result": "up-regulation"},
      {"measurement": "MAFB mRNA expression", "setting": "[2]", "result": "up-regulation"},
      {"measurement": "PTF1a mRNA expression (exocrine gene)", "setting": "[2]", "result": "down-regulated"},
      {"measurement": "insulin mRNA levels up-regulated", "setting": "[3]; compared to DMSO control cultures", "result": 5, "unit": "fold"},
      {"measurement": "INSM1 mRNA expression", "setting": "[3]; compared to day 4 cultures", "result": "up-regulation"},
      {"measurement": "ISL1 mRNA expression", "setting": "[3]; compared to day 4 cultures", "result": "up-regulation"},
      {"measurement": "MAFA mRNA expression", "setting": "[3]; compared to day 4 cultures", "result": "up-regulation"},
      {"measurement": "CPA1 mRNA expression (exocrine gene)", "setting": "[3]; [7]", "result": "down-regulation"},
      {"measurement": "Glucagon mRNA expression", "setting": "[3]; [7]", "result": "down-regulation"},
      {"measurement": "MAFB mRNA expression", "setting": "[3]; [7]", "result": "up-regulation"},
      {"measurement": "NKX6.1 mRNA expression", "setting": "[3]; [7]", "result": "not altered"},
      {"measurement": "Neurogenin3 (NGN3) mRNA expression", "setting": "[3]; [7]", "result": "up-regulation"},
      {"measurement": "PTF1a mRNA expression (exocrine gene)", "setting": "[3]; [7]", "result": "down-regulation"},
      {"measurement": "Arx expression", "setting": "[4]", "result": "significant up-regulation"},
      {"measurement": "Glucagon expression", "setting": "[4]", "result": "increased expression"},
      {"measurement": "Insm1 expression", "setting": "[4]", "result": "significant up-regulation"},
      {"measurement": "Insulin expression", "setting": "[4]", "result": "increased expression"},
      {"measurement": "NeuroD expression", "setting": "[4]", "result": "significant up-regulation"},
      {"measurement": "Neurogenin (Ngn3) expression", "setting": "[4]", "result": "significant up-regulation"},
      {"measurement": "Ngn3 level (immunostaining)", "setting": "[5]", "result": "higher levels"},
      {"measurement": "c-peptide level (immunostaining)", "setting": "[5]", "result": "higher levels"}
    ]}
  ]
}
